Results published in US10092556B2, “Piperidine compound or salt thereof” (TAIHO PHARMACEUTICAL CO., LTD., priority 2012, dated 2018).

How the values were obtained:
[1] = Evaluation of oral absorbability (plasma concentration after oral administration); assay type: in vivo; settings: BALB/cA mouse, 0.5% HPMC, 0.5-6 hours
Procedure: The test compound was suspended or dissolved in 0.5% HPMC and orally administered to a BALB/cA mouse. The blood was drawn from the retro-orbital venous plexus 0.5, 1, 2, 4, and 6 hours after oral administration to obtain plasma. The concentration of the compound in the plasma thus obtained was measured by LCMS and the oral absorbability was evaluated.

[2] = test system: human-derived stomach cancer cell line SNU-16; experiment: Inhibitory effect on cell proliferation (CellTiter-Glo, 72 hours); assay type: cell-based; settings: SNU-16, 72 hours
Text: Cells of the human-derived stomach cancer cell line SNU-16 were each routinely subcultured in the 10% fetal bovine serum (FBS)-containing RPMI-1640 medium and 10% FBS-containing Dulbecco's Modified Eagle Medium (DMEM) in order to maintain cell density of no more than 80%. In order to initiate a test for the inhibitory activity on cell proliferation, cells were each suspended in the aforementioned medium and seeded in each well of a 96-well flat bottom plate (black plate with a transparent bottom) at 2,500 or 3,000 cells per well. The cells were then cultured for one day at 37° C. in an incubator containing 5% carbon dioxide gas. The next day, the compound of the present invention and the subject compound were dissolved in DMSO, and using DMSO, the test compounds were serially diluted to a concentration of 200 times the final concentration. The solution of the test compounds in DMSO was diluted with the medium used for culturing, and then added to each well of the cell culture plate at a final DMSO concentration of 0.5%. The cells were cultured for 72 hours at 37° C. in an incubator containing 5% carbon dioxide gas. The cells were counted at the time of addition of the test compounds and 72 hours after culturing using the CellTiter-Glo Luminescent Cell Viability Assay kit (the product of Promega) based on the protocol recommended by Promega. The reagent included in the kit was added to each plate, followed by stirring, and the plates were left to stand at room temperature for 10 minutes. Upon completion of the reaction, the luminescence signal was measured using a microplate reader.
The cell proliferation inhibitory rate was calculated from the following formula and the concentration of the test compound at which the cell proliferation was inhibited by 50% (GI50 (nM)) was determined. Cell proliferation inhibitory rate (%)=(C−T)/(C−C0)×100 T: Luminescence signal in a well with the addition of the test compound C: Luminescence signal in a well without the addition of the test compound C0: Luminescence signal in a well measured before the addition of the compound

[3] = test system: human uterine cervical cancer cell line (Hela-Luc); experiment: Evaluation of the anti-tumor effect (2), Hela-Luc subcutaneous transplant in nude mouse; assay type: in vivo; settings: Day 11, paclitaxel 20 mg/kg iv day 1
[4] = test system: human uterine cervical cancer cell line (Hela-Luc); experiment: Evaluation of the anti-tumor effect (1), Hela-Luc subcutaneous transplant in nude mouse; settings: Day 23; paclitaxel 30 mg/kg iv day 1; compound 60 mg/kg oral twice a day on day 2 and 3
Text: The luciferase-introduced human uterine cervical cancer cell line (Hela-Luc) was subcutaneously transplanted into a nude mouse, and when the volume of the grafted tumor reached 100 to 200 mm^3, five mice in one group were grouped into the single drug administration group and combinational administration group by a randomized stratification method so as to achieve a uniform tumor volume in each group (day 1). […] In order to compare the anti-tumor effect brought about by drug administration, setting the tumor volume at the time of grouping at 1, the relative tumor volume (RTV) was determined in accordance with the following formula as a rate of tumor proliferation. RTV=(Tumor volume on the day of measurement of tumor volume)/(Tumor volume at the time of grouping)
Meanwhile, as the index of systemic toxicity caused by drug administration, the body weight change (BWC) was used. BWC (%)=([(Body weight of mouse on the day of body weight measurement)−(Body weight of mouse at the time of grouping)]/(Body weight of mouse at the time of grouping))×100

[5] = Table 22, Compound 13 30 mg/kg oral twice a day on day 2 and 3
[6] = Table 23, Compound 22 100 mg/kg single, 60 mg/kg in combination, oral twice a day on day 2 and 3

Row | oral absorbability (plasma concentration after oral administration) [1] | GI50 [2] | Compound | BWC (body weight change) [3, 5] | BWC (body weight change) [3, 6] | BWC (body weight change) [4]
1 | favorable oral absorbability | 120 nM | Cc1cc(Nc2nc(CC3(C(=O)O)CCN(C(=O)c4cccc(Cl)c4Cl)CC3)ccc2F)n[nH]1 [Example 1, 1-(2,3-dichlorobenzoyl)-4-((5-fluoro-6-(5-methyl-1H-pyrazol-3-ylamino)pyridin-2-yl)methyl)piperidine-4-carboxylic acid] |  |  | 
2 | favorable oral absorbability |  | COc1ccc(CC2(C(=O)O)CCN(C(=O)c3cccc(Cl)c3F)CC2)nc1Nc1cc(C)[nH]n1 [Example 11, 1-(3-chloro-2-fluorobenzoyl)-4-((5-methoxy-6-(5-methyl-1H-pyrazol-3-ylamino)pyridin-2-yl)methyl)piperidine-4-carboxylic acid] |  |  | 
3 | favorable oral absorbability |  | Cc1cc(Nc2nc(CC3(C(=O)O)CCN(C(=O)c4cccc(Cl)c4F)CC3)ccc2Cl)n[nH]1 [Example 12, 1-(3-chloro-2-fluorobenzoyl)-4-((5-chloro-6-(5-methyl-1H-pyrazol-3-ylamino)pyridin-2-yl)methyl)piperidine-4-carboxylic acid] |  |  | 
4 | favorable oral absorbability | 60 nM | Cc1cc(Nc2nc(CC3(C(=O)O)CCN(C(=O)c4cccc(Cl)c4F)CC3)ccc2F)n[nH]1 [Example 13, 1-(3-chloro-2-fluorobenzoyl)-4-((5-fluoro-6-(5-methyl-1H-pyrazol-3-ylamino)pyridin-2-yl)methyl)piperidine-4-carboxylic acid] | 6.0% |  | 
5 | favorable oral absorbability | 970 nM | Cc1cc(Nc2nc(CC3(c4noc(C)n4)CCN(C(=O)c4cccc(Cl)c4F)CC3)ccc2F)n[nH]1 [Example 22, (3-chloro-2-fluorophenyl)(4-((5-fluoro-6-(5-methyl-1H-pyrazol-3-ylamino)pyridin-2-yl)methyl)-4-(5-methyl-1,2,4-oxadiazol-3-yl)piperidin-1-yl)methanone] |  | 6.9% | 
6 |  |  | CC(=O)O[C@H]1C(=O)[C@@]2(C)[C@H]([C@H](OC(=O)c3ccccc3)[C@]3(O)C[C@H](OC(=O)[C@H](O)[C@@H](NC(=O)c4ccccc4)c4ccccc4)C(C)=C1C3(C)C)[C@]1(OC(C)=O)CO[C@@H]1C[C@@H]2O [Paclitaxel, paclitaxel, reference compound] | 5.4% | 7.8% | 3.0%
